Assay [1] concerns U-87 MG xenografts. Put plainly: Western blot of necropsied in vivo tumor samples. Also noted: species or system nude mice. The note with it: xenograft samples after 6 wk treatment. The procedure:
(§1) Six-wk-old nude mice (Ncr nu/nu) were obtained from the National Cancer Institute (Bethesda, Md.). The animals were housed in sterile cages in a temperature-controlled room with a 12-h light/12-h dark schedule and were fed with autoclaved chow and water, ad libitum. The Institutional Animal Care and Use Committee, VA Medical Center Miami, Fla. fully approved the animal protocols. For the therapy study, 10^6 cells per mouse of the human glioblastoma cell line, U-87 MG (American Type Culture Collection, ATCC), were injected into the flanks of four nude mice (Ncr nu/nu) under isoflurane anesthesia (Baxter). A month later, the resulting tumors were harvested and minced into ˜3 mm^3 pieces and transplanted into flanks of nude mice, under anesthesia, using a minitrocar. When the tumors reached ˜32 mm^3, the mice were randomized into four groups. The animals received the following treatments for 6 wk: (Group 1) control, 16 tumors, vehicle solution; (group 2) agonist JI-34, 1 μg/20 g, s.c., daily, 19 tumors; (group 3) DOX, 260 nmol/20 g, i.v., weekly on Thursdays, 19 tumors; and (group 4) JI-34 (1 μg/20 g daily)+DOX (260 nmol/20 g), 16 tumors. Tumor volume was measured with microcalipers once a week and calculated using the formula: (length×width×height×in)/6. Tumor doubling time was calculated using the formula: [study duration×logarithm (LOG) 2]/(LOG final tumor volume−LOG initial tumor volume). At the end of the experiment, the mice were killed under pentobarbital anesthesia, tumors were excised and weighed; necropsy was performed. Samples free of necrotic debris were immediately snap frozen in liquid nitrogen and stored at −80° C. for further analyses.
Protein from the tumor tissue was isolated using the NucleoSpin kit (Macherey-Nagel). Protein concentrations were determined by NanoDrop (NanoDrop Technologies). Equal amounts of protein were resuspended in sample loading buffer (0.25 M Trizma Base, 8% SDS, 40% glycerol, 0.004% bromophenol blue, 4% P3-mercaptoethanol; pH 6.8), boiled for 3 min and separated by 12% SDS-polyacrylamide gel electrophoresis. Proteins from the gel were then transferred onto nitrocellulose membranes, which were blocked with 50-50% Tris-buffered saline (20 mM Tris.HCl pH 7.5, 150 mM NaCl) and Odyssey blocking buffer for 1 h at room temperature, followed by an overnight incubation at 4° C. with the following primary antibodies: growth hormone-releasing hormone receptor (GHRH-R), (ab28692) nestin (ab92391), glial fibrillary acid protein (GFAP) (ab48050) (all from AbCam), β-actin (A5441; Sigma-Aldrich), or p53 (9282; Cell Signaling Technology). […] The protein bands were quantified using […] (LI-COR Biosciences); integrated density values of triplicate experiments were plotted.

The subject of assay [2] is U-87 MG, human GBM tumors. Put plainly: Growth of U-87 MG glioblastoma xenografts in nude mice. The note with it: U-87 MG xenografts in nude mice, 6 wk; JI-34 50 μg/kg/d s.c., DOX 13 μmol/kg/wk i.v.; vs. control. Format: in vivo. Here is the method: as §1, with “The animals received the following treatments for 6 wk: (Group 1) control, 16 tumors, vehicle solution; (group 2) agonist JI-34, 1 μg/20 g, s.c., daily, 19 tumors; (group 3) DOX, 260 nmol/20 g, i.v., weekly on Thursdays, 19 tumors; and (group 4) JI-34 (1 μg/20 g daily)+DOX (260 nmol/20 g), 16 tumors.” left out, “At the end of the experiment, the mice were killed under pentobarbital anesthesia, tumors were excised and weighed; necropsy was performed. Samples free of necrotic debris were immediately snap frozen in liquid nitrogen and stored at −80° C. for further analyses.” left out

For assay [3], the system named is U-87 cell-derived tumors. Put plainly: Human Cancer PathwayFinder quantitative PCR array of dissected tumor samples. Format: in vivo, nude mice. The note with it: tumors after 6 wk treatment; fold change (ΔΔCt) vs. control. Here is the method: as §1, with “The animals received the following treatments for 6 wk: (Group 1) control, 16 tumors, vehicle solution; (group 2) agonist JI-34, 1 μg/20 g, s.c., daily, 19 tumors; (group 3) DOX, 260 nmol/20 g, i.v., weekly on Thursdays, 19 tumors; and (group 4) JI-34 (1 μg/20 g daily)+DOX (260 nmol/20 g), 16 tumors.” left out, “At the end of the experiment, the mice were killed under pentobarbital anesthesia, tumors were excised and weighed; necropsy was performed. Samples free of necrotic debris were immediately snap frozen in liquid nitrogen and stored at −80° C. for further analyses.” left out
Total RNA was isolated from representative, DNase treated, U-87 MG dissected tumor samples using a NucleoSpin kit according to the manufacturer's instructions (Macherey-Nagel). Four tumor samples from each group were analyzed. The yield and the quality of RNA samples were determined spectrophotometrically using 260 nm, and 260/280- and 260/230-nm ratio. […]
The Human Cancer PathwayFinder quantitative PCR array (PAHS-033A; Qiagen) used in our study contains 84 unique genes related to cell proliferation, apoptosis, cell cycle, angiogenesis, invasion, and metastasis. […] Fold changes in gene expression were calculated using the ΔΔCt method and five stably expressed housekeeping genes (B2M, HPRT1, RPL13A, GAPDH, and ACTB) were used for normalization of the results.

The subject of assay [4] is U-87 MG cells. In words: Cell counting after repeated exposure for 3 wk (Coulter Counter). Format: cell-based, human. The note with it: repeated exposure 3 wk, 1 μM JI-34 daily, DOX weekly at 100 nM; vs. control. The procedure: (§2) U-87 MG cells were cultured in Eagle's minimum essential medium (ATCC) medium [supplemented with 10% FBS (ATCC) and 0.1% penicillin/streptomycin] at 37° C. and 5% CO2 atmosphere. For cell count and cell size determination, […] were seeded into T-25 flasks. The medium was changed two to three times a week. The following treatment in vitro groups were set up: (Group 1) control, vehicle solution; (group 2) JI-34 at 1 μM final concentration, daily; (group 3) DOX at 100 nM final concentration, weekly on Thursdays; and (group 4) JI-34, 1 μM and DOX, 100 nM. After 3 wk, cell count and cell size were determined by Z Series Coulter Counter (Beckman Coulter).

In assay [5] the test system is U-87 MG cells. In words: Cell volume determination (intracellular water space, 3-OMG). Format: cell-based, human. The note with it: repeated exposure 3 wk, 1 μM JI-34 daily, DOX weekly at 100 nM; vs. control. Here is the method:
as §2
Cell volume was estimated by measuring the intracellular water space as follows. Briefly, 1 mM 3-O-methylglucose (3-OMG) and 0.5 μCi/mL [3H]-3-OMG were added to the culture 6 h before the volume assay. At the end of the incubation period, culture medium was aspirated, and an aliquot was saved for radioactivity determination. […] Radioactivity in the cell extracts and media was determined, and an aliquot of the cell extract was used for protein estimation with the Bio-Rad bicinchoninic acid kit. Values were normalized to protein level, and cell volume was expressed as microliters/milligram protein.

Assay [6] concerns U-87 MG cells. Put plainly: Multidrug resistance (MDR) assay, calcein retention. Format: cell-based, human. The note with it: JI-34 1 μM pretreatment 24 h, DOX 100 nM, cyclosporin-A 1/1,000 dilution; 1 h; vs. control.
Protocol: The multidrug resistance assays were performed according to the manufacturer's instructions (Cayman Chemical). U-87 MG cells were seeded, 5×10^4 cells per well density in 100 μL medium in 96-well, black, clear-bottom plates and grown overnight in a humidified incubator at 37° C. […] Afterward, the cells were incubated for 1 h, then calcein AM/Hoechst dye combined staining solution was added. Fifteen minutes later, both cell density (at excitation and emission wavelengths of 355 nm and 465 nm, respectively) and calcein retention (at excitation and emission wavelengths of 485 nm and 535 nm, respectively) were detected with the help of a Victor3 multilabel counter. Relative calcein retention values were expressed as a function of cell density.
For assay [7], the system named is U-87 MG cells. Put plainly: MTT proliferation assay in vitro. The assay is classed as cell-based, human. The note with it: JI-34 1 μM, DOX 100 nM; combination: 24 h JI-34 pretreatment, then DOX+JI-34 48 h. The procedure:
For proliferation studies, 104 cells per well were seeded in 100 μL media, in a 96-well plate, and incubated for 24 h in a humidified incubator at 37° C. Then, culture medium was replaced with FBSfree medium (starvation) for 24 h. After 24 h, the cells received full medium containing the following treatments: Groups 1 (control) and 3, vehicle solution; groups 2 and 4, JI-34 (1 μM final concentration). After another 24 h, the cells received the following treatments: group 1, vehicle solution; group 2, JI-34; group 3, DOX (100 nM final concentration); and group 4, JI-34+DOX. Then, they were incubated for 48 h and the effect on cell proliferation was evaluated by using the MTT assay (CellTiter 96 Non-Radioactive Cell Proliferation Assay; Promega), according to the manufacturer's instructions with the help of a Victor3 multilabel counter (Perkin-Elmer).
For orientation: Tetrazolium dyes change colour on reduction, which living cells bring about.

The subject of assay [8] is U-87 MG cells. Put plainly: ApoLive-Glo Multiplex assay (viability and apoptosis). The assay is classed as cell-based, human. The note with it: JI-34 1 μM, DOX 100 nM, after 24 h of treatment. The procedure: Determinations of viability and apoptosis were performed from freshly seeded cell samples (10^4 cells per well, in 100 μL media, in a 96-well plate) with the help of ApoLive-Glo Multiplex Assay (Promega), according to the manufacturer's instructions. First the cells received full medium containing the following treatments: Groups 1 (control) and 3, vehicle solution; groups 2 and 4, JI-34 (1 μM final concentration). After 24 h, the cells received the following treatments: group 1, (vehicle solution); group 2, JI-34; group 3, DOX (100 nM final concentration); and group 4, JI-34+DOX. After another 24 h of incubation, viability reagent was added to the wells and fluorescence was measured by Victor3 multilabel counter. Then Caspase-Glo 3/7 apoptosis reagent was added and luminescence was determined.

Assay [9] concerns U-87 MG cells. Put plainly: Immunocytochemistry / differentiation in reduced serum-containing medium. Format: cell-based, human. The note with it: JI-34 1 μM, 0.1% FBS-containing medium, 2 d; vs. DMSO control. Here is the method: Cells were seeded onto coverslips in six-well plates (50,000 cells per well) in 10% FBS-containing growth medium. This medium was replaced with serum-free medium the following day for 24 h. Thereafter, GHRH agonist (JI-34, 1 μM) was added in medium supplemented with 0.1% FBS and remained for the consecutive 2 d. Control cells received vehicle (DMSO). At the end of the treatment, phase-contrast images of live cells were collected and cells were fixed in ice-cold acetone for 10 min, washed with PBS three times, and blocked with 2% goat serum in PBS for 30 min. GFAP (Abcam; 1:500 dilution) or nestin (BD Transduction Laboratories; 1:75 dilution) antibodies were added in PBS for 1 h. Anti-rabbit and anti-mouse secondary antibodies (Alexa Fluor 488; Jackson Immunoresearch) were also applied for 1 h. Coverslips were mounted in Vectashield mounting medium containing DAPI for nuclear staining (Vector Laboratories). Images were acquired on a Nikon Eclipse Ti fluorescence microscope (Nikon Instruments).

Assay [10] concerns U-87 MG cells. Put plainly: ELISA of p53, FGF basic and TGFβ. Format: cell-based, human. The note with it: cell culture supernatant, 1 μM JI-34; vs. control. Here is the method:
Glioblastoma cells (10^5 cells per well) were seeded onto six-well plates, cultured overnight, and then exposed to compounds used in the 3-(4,5-dimethylthiazol-2-yl)-2,5-diphenyltetrazolium bromide proliferation assays: Groups 1 (control) and 3, vehicle solution; groups 2 and 4, GHRH agonists JI-34 (1 μM final concentration). After another 24 h, the cells received the following treatments: Group 1, vehicle solution; group 2, JI-34; group 3, doxorubicin (DOX) (100 nM final concentration); and group 4, JI-34+DOX. Concentrations of the specific proteins in the medium (in the case of FGF basic or TGFβ-1) or in samples of scraped and homogenized cells (in the case of p53) were determined after 24 h using ELISA kits according to the manufacturer's instructions. Human TGFβ and FGF basic ELISA kits were obtained from AbCam, whereas p53 was measured with a PathScan Sandwich ELISA kit (Cell Signaling Technology). Readings were normalized to protein concentrations as determined by NanoDrop (NanoDrop Technologies).
A general note: An ELISA detects its analyte on a solid surface through an enzyme-linked reagent.

“Also recorded” adds a separate entry of the source. Marks after values point to notes of the source that are not given here. [ ]: non-standard residue; d: D form. The star is where a group is joined. Desaminotyrosyl = O=C(CCc1ccc(O)cc1)*; Agmatine = N=C(N)NCCCCN*; Nle = CCCC[C@H](N)C(=O)O; Orn = NCCC[C@H](N)C(=O)O; Abu = CC[C@H](N)C(=O)O

`COc1cccc2c1C(=O)c1c(O)c3c(c(O)c1C2=O)C[C@@](O)(C(=O)CO)C[C@@H]3O[C@H]1C[C@H](N)[C@H](O)[C@H](C)O1` [DOX, doxorubicin]: in assay [1], the “expression of GFAP” value is recorded as “decrease” and the “expression of the neuroectodermal stem-cell marker nestin” value was “increased”. Besides, in assay [2], the “inhibition of tumor growth” value stood at 35%. Besides, in [3], the “Relative expression of B-cell lymphoma 2 (Bcl-2)” value is given as −1.8*, the “Relative expression of Integrin α3 (CD49C)” value was −1.65* and the “Relative expression of S100 calcium binding protein A4 (S100-A4)” value is reported as −2.34*. Further, the “decrease in the number of cells” value in [4] was found to be 52%. In addition, in [5], the “decrease in the volume of the cells (intracellular water content)” value is listed as 20%. Moreover, the “increase in calcein retention” value in assay [6] was 7%. For the same compound, the “inhibitory effect on proliferation (MTT)” value in [7] is listed as “no significant effect”. Further, the increase in apoptosis in assay [8] is 182%.
With “[Dat^1, Orn^12, Abu^15, Orn^21, Nle^27, Asp^28, Agm^29]hGHRH(1-29)NH2 ([Desaminotyrosyl]ADAIFTNSYR[Orn]VL[Abu]QLSAR[Orn]LLQDI[Nle]D[Agmatine]-NH2) [JI-34]”, the “expression of the neuroectodermal stem-cell marker nestin” value in assay [1] was “decreased”. Also, the “increase in GFAP expression (integrated density values)” value in assay [1] (compared with the control) was found to be 70%. In addition, in [9], the “GFAP labeling (immunofluorescence)” value is reported as “high levels of GFAP were detected; also recorded: elevation in the intensity of GFAP-labeling” and the “nestin level (immunofluorescence)” value was “did not change notably; also recorded: did not show a significant change”. Besides, in assay [4], the “decrease in the number of cells” value is reported as “no significant effect”. Also, the “inhibitory effect on proliferation (MTT)” value in [7] is “no significant effect”. Besides, in assay [10], the “decrease in level of TGFβ” value turned out to be 24% and the “decrease in level of bFGF” value is 37%. Besides, in [8], the increase in apoptosis entry is reported as “no effect”.

The values are drawn from US20150174207A1, “METHODS FOR TREATING CANCER WITH GHRH AGONISTS” (UNIVERSITY OF MIAMI, priority 2013, published 2015).
